Source: patent US20220056019A1, “FARNESOID X RECEPTOR AGONISTS AND USES THEREOF” (Metacrine, Inc., priority 2018, published 2022)

What follows are compounds tested against T1, hFXR (Homo sapiens, UniProt Q96RI1) (assay: In Vitro FXR Assay (TK): TK-ECRE-luc reporter in transfected CV-1 cells). Details: 18 hrs incubation, luminescence.
T1 construct: expressed in transfected cells; host or cells: CV-1 cells
T1 sequence (Q96RI1 1-486): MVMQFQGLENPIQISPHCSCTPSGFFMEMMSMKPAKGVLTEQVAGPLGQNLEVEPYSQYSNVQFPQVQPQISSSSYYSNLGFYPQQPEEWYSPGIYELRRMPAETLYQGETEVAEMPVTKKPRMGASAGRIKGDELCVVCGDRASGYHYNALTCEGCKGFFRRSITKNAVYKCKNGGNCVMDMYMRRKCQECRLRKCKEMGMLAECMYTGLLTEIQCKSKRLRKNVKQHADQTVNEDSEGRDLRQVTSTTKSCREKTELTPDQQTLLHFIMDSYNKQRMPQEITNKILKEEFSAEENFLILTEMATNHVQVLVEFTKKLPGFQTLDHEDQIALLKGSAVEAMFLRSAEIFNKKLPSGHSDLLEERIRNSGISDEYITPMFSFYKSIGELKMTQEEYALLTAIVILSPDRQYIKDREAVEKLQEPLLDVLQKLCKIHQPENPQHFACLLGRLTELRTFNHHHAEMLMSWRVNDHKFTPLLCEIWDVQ
T1 sequence (P19793 1-462 partner): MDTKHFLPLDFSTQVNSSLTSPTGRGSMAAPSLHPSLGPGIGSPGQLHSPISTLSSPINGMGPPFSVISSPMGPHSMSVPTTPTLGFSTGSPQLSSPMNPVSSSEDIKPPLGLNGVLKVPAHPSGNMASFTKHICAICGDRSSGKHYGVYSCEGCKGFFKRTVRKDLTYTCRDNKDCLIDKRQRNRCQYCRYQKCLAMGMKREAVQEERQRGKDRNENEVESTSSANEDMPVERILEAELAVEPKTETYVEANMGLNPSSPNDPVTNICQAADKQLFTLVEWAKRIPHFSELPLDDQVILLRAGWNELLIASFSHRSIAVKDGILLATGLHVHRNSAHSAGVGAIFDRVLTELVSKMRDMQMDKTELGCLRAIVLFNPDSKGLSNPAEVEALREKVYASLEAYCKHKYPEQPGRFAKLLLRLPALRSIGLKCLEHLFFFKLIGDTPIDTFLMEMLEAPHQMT
Type: cell-based
Summary of the method: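 Luminescence from a TK-ECRE-luc reporter was read after 18 h of compound exposure in CV-1 cells. These cells were grown in charcoal-stripped FBS medium and transiently transfected with hFXR, hRXR and YFP expression plasmids.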

EC50, ≤ 50 nM:
COc1ccc(C23CCC(CN(c4cc(-c5noc(C(C)C)n5)ccn4)C(=O)[C@H]4CC[C@H](OC(=O)N5CC(O)C5)CC4)(CC2)CC3)cc1C [Compound 26.14, 4-((4-(5-Isopropyl-1,2,4-oxadiazol-3-yl)pyridin-2-yl)((4-(4-methoxy-3-methylphenyl)bicyclo[2.2.2]octan-1-yl)methyl)carbamoyl)cyclohexyl trans-3-hydroxyazetidine-1-carboxylate]
COc1ccc([C@H]2CC[C@H](CN(c3cc(-c4cnn(C(C)C)c4)ccn3)C(=O)[C@H]3CC[C@H](OC(=O)N4CC(OCCO)C4)CC3)CC2)cc1C [Compound 2.11, trans-4-((4-(1-Isopropyl-1H-pyrazol-4-yl)pyridin-2-yl)(((trans)-4-(4-methoxy-3-methylphenyl)cyclohexyl)methyl)carbamoyl) cyclohexyl3-(2-hydroxyethoxy)azetidine-1-carboxylate]
COc1ccc([C@H]2CC[C@H](CN(c3cccc(-c4cnn(C(C)C)c4)c3)C(=O)[C@H]3CC[C@H](OC(=O)NC(C)C)CC3)CC2)cc1C [Compound 5.10, trans-4-((3-(1-Isopropyl-1H-pyrazol-4-yl)phenyl)((trans-4-(4-methoxy-3-methylphenyl)cyclohexyl)methyl)carbamoyl)cyclohexyl isopropylcarbamate]
CCc1nc(-c2ccnc(N(C[C@H]3CC[C@H](c4ccc(OC)c(C)c4)CC3)C(=O)[C@H]3CC[C@H](OC(=O)N4CC(O)C4)CC3)c2)co1 [Compound 2.36, trans-4-((4-(2-Ethyloxazol-4-yl)pyridin-2-yl)((trans-4-(4-methoxy-3-methylphenyl)cyclohexyl)methyl)carbamoyl)cyclohexyl 3-hydroxyazetidine-1-carboxylate]
COc1ccc([C@H]2CC[C@H](CN(c3cccc(-c4cnn(C(C)C)c4)c3)C(=O)[C@H]3CC[C@H](OC(=O)N4CCN(C)CC4)CC3)CC2)cc1C [Compound 5.11, trans-4-((3-(1-Isopropyl-1H-pyrazol-4-yl)phenyl)((trans-4-(4-methoxy-3-methylphenyl)cyclohexyl)methyl)carbamoyl)cyclohexyl 4-methylpiperazine-1-carboxylate]
COCC(=O)N[C@H]1CC[C@H](C(=O)N(CC23CCC(c4ccc(OC)c(C)c4)(CC2)CC3)c2cc(-c3coc(C4CC4)n3)ccn2)CC1 [Compound 9.10, (trans)-N-(4-(2-Cyclopropyloxazol-4-yl)pyridin-2-yl)-N-((4-(4-methoxy-3-methylphenyl)bicyclo[2.2.2]octan-1-yl)methyl)-4-(2-methoxyacetamido)cyclohexanecar-boxamide]
COc1ccc([C@H]2CC[C@H](CN(c3cc(-c4cnn(C(C)C)c4)ccn3)C(=O)[C@H]3CC[C@H](OC(=O)N4CCOCC4)CC3)CC2)cc1C [Compound 2.16, trans-4-((4-(1-Isopropyl-1H-pyrazol-4-yl)pyridin-2-yl)(((trans)-4-(4-methoxy-3-methylphenyl)cyclohexyl)methyl)carbamoyl)cyclohexyl morpholine-4-carboxylate]
COc1ccc(C23CCC(CN(c4cc(-c5coc(C6CC6)n5)ccn4)C(=O)[C@H]4CC[C@H](NC(C)=O)CC4)(CC2)CC3)cc1C [Compound 9.09, (trans)-4-Acetamido-N-(4-(2-cyclopropyloxazol-4-yl)pyridin-2-yl)-N-((4-(4-methoxy-3-methylphenyl)bicyclo[2.2.2]octan-1-yl)methyl)cyclohexanecarboxamide]
CCC(=O)N[C@H]1CC[C@H](C(=O)N(C[C@H]2CC[C@H](c3ccc(OC)c(C)c3)CC2)c2cccc(-c3cnn(C(C)C)c3)c2)CC1 [Compound 10, trans-N-(3-(1-Isopropyl-1H-pyrazol-4-yl)phenyl)-N-((trans-4-(4-methoxy-3-methylphenyl)cyclohexyl)methyl)-4-propionamidocyclohexanecarboxamide]
COc1ccc(C23CCC(CN(c4cc(-c5cnc(C(C)C)s5)ccn4)C(=O)[C@H]4CC[C@H](OC(=O)N5CC(CO)C5)CC4)(CC2)CC3)cc1C [Compound 4.29, 4-((4-(2-Isopropylthiazol-5-yl)pyridin-2-yl)((4-(4-methoxy-3-methylphenyl)bicyclo[2.2.2]octan-1-yl)methyl)carbamoyl)(trans-cyclohexyl) 3-(hydroxymethyl)azetidine-1-carboxylate]
COc1ccc(C23CCC(CN(c4cc(-c5cnn(C6(C)CCC6)c5)ccn4)C(=O)[C@H]4CC[C@H](OC(=O)N5CC(O)C5)CC4)(CC2)CC3)cc1C [Compound 24, 4-(((4-(4-Methoxy-3-methylphenyl)bicyclo[2.2.2]octan-1-yl)methyl)(4-(1-(1-methylcyclobutyl)-1H-pyrazol-4-yl)pyridin-2-yl)carbamoyl)cyclohexyl trans-3-hydroxyazetidine-1-carboxylate]
Cc1ccc(C23CCC(CN(c4cc(-c5cnn(C(C)C)c5)ccn4)C(=O)[C@H]4CC[C@H](OC(=O)N5CC(O)C5)CC4)(CC2)CC3)cc1C [Compound 26.09, 4-(((4-(3,4-Dimethylphenyl)bicyclo[2.2.2]octan-1-yl)methyl)(4-(1-isopropyl-1H-pyrazol-4-yl)pyridin-2-yl)carbamoyl)cyclohexyl trans-3-hydroxyazetidine-1-carboxylate]
COc1ccc([C@H]2CC[C@H](CN(c3cc(-c4cnn(C(C)C)c4)ccn3)C(=O)[C@H]3CC[C@H](OC(=O)N4CC(N(C)C)C4)CC3)CC2)cc1C [Compound 2.13, trans-4-((4-(1-Isopropyl-1H-pyrazol-4-yl)pyridin-2-yl)(((trans)-4-(4-methoxy-3-methylphenyl)cyclohexyl)methyl)carbamoyl) cyclohexyl 3-(dimethylamino)azetidine-1-carboxylate]
COc1ccc([C@H]2CC[C@H](CN(c3cc(-c4coc(C5CC5)n4)ccn3)C(=O)[C@H]3CC[C@H](OC(=O)NC4COC4)CC3)CC2)cc1C [Compound 2.53, trans-4-((4-(2-Cyclopropyloxazol-4-yl)pyridin-2-yl)(((trans)-4-(4-methoxy-3-methylphenyl)cyclohexyl)methyl)carbamoyl)cyclohexyl oxetan-3-ylcarbamate]
COc1ccc([C@H]2CC[C@H](CN(c3cc(-c4cnn(C(C)C)c4)ccn3)C(=O)[C@H]3CC[C@H](OC(=O)N4CCN(C)CC4)CC3)CC2)cc1C [Compound 2.14, trans-4-((4-(1-Isopropyl-1H-pyrazol-4-yl)pyridin-2-yl)(((trans)-4-(4-methoxy-3-methylphenyl)cyclohexyl)methyl)carbamoyl) cyclohexyl4-methylpiperazine-1-carboxylate]
COc1ccc(C23CCC(CN(c4cc(-n5cnc(C(C)C)c5)ccn4)C(=O)[C@H]4CC[C@H](OC(=O)N5CC(O)C5)CC4)(CC2)CC3)cc1C [Compound 23.13, 4-((4-(4-Isopropyl-1H-imidazol-1-yl)pyridin-2-yl)((4-(4-methoxy-3-methylphenyl)bicyclo[2.2.2]octan-1-yl)methyl)carbamoyl)cyclohexyl trans-3-hydroxyazetidine-1-carboxylate]
